Laboratory results: the kinase profiling compilation of Christmann-Franck et al. (2016)

Key:
Test in all cases: radiometric filter-binding kinase assay, Kinase HotSpot
Conditions in all cases: compound 0.5 µM; ATP 10 µM
AXL (human) = AXL (human) (UniProt P30530)
CAMK2A (human) = CAMK2A (human) (UniProt Q9UQM7)
CDK1 CCNA2 (human) = CDK1 CCNA2 (human) (UniProt P06493+P20248)
CDK4 CCND3 (human) = CDK4 CCND3 (human) (UniProt P30281+P11802)
CDK6 CCND3 (human) = CDK6 CCND3 (human) (UniProt P30281+Q00534)
CDK9 CCNT1 (human) = CDK9 CCNT1 (human) (UniProt P50750+O60563)
CHEK1 (human) = CHEK1 (human) (UniProt O14757)
CSNK1A1 (human) = CSNK1A1 (human) (UniProt P48729)
CSNK2A2 (human) = CSNK2A2 (human) (UniProt P19784)
EPHA8 (human) = EPHA8 (human) (UniProt P29322)
ERBB2 (human) = ERBB2 (human) (UniProt P04626)
FER (human) = FER (human) (UniProt P16591)
FLT3 (human) = FLT3 (human) (UniProt P36888)
FYN (human) = FYN (human) (UniProt P06241)
GRK4 (human) = GRK4 (human) (UniProt P32298)
GRK5 (human) = GRK5 (human) (UniProt P34947)
GRK6 (human) = GRK6 (human) (UniProt P43250)
GSG2 (human) = GSG2 (human) (UniProt Q8TF76)
GSK3B (human) = GSK3B (human) (UniProt P49841)
MAPK11 (human) = MAPK11 (human) (UniProt Q15759)
MAPK12 (human) = MAPK12 (human) (UniProt P53778)
MAPK13 (human) = MAPK13 (human) (UniProt O15264)
MAPK14 (human) = MAPK14 (human) (UniProt Q16539)
MAPK3 (human) = MAPK3 (human) (UniProt P27361)
MAPK9 (human) = MAPK9 (human) (UniProt P45984)
MARK4 (human) = MARK4 (human) (UniProt Q96L34)
MET (human) = MET (human) (UniProt P08581)
PBK (human) = PBK (human) (UniProt Q96KB5)
PIM3 (human) = PIM3 (human) (UniProt Q86V86)
PRKCG (human) = PRKCG (human) (UniProt P05129)
PRKCI (human) = PRKCI (human) (UniProt P41743)
PTK2B (human) = PTK2B (human) (UniProt Q14289)
RAF1 (human) = RAF1 (human) (UniProt P04049)
RET (human) = RET (human) (UniProt P07949)
RPS6KA4 KD2 (human) = RPS6KA4 KD2 (human) (UniProt O75676)
RPS6KA5 KD2 (human) = RPS6KA5 KD2 (human) (UniProt O75582)
SGK2 (human) = SGK2 (human) (UniProt Q9HBY8)
SGK3 (human) = SGK3 (human) (UniProt Q96BR1)
STK24 (human) = STK24 (human) (UniProt Q9Y6E0)
STK4 (human) = STK4 (human) (UniProt Q13043)
[1] = target: TYK2 JH1 catalytic (human) (UniProt P29597)
VRK1 (human) = VRK1 (human) (UniProt Q99986)

FER (human), sequence (P16591 whole entry, looked up): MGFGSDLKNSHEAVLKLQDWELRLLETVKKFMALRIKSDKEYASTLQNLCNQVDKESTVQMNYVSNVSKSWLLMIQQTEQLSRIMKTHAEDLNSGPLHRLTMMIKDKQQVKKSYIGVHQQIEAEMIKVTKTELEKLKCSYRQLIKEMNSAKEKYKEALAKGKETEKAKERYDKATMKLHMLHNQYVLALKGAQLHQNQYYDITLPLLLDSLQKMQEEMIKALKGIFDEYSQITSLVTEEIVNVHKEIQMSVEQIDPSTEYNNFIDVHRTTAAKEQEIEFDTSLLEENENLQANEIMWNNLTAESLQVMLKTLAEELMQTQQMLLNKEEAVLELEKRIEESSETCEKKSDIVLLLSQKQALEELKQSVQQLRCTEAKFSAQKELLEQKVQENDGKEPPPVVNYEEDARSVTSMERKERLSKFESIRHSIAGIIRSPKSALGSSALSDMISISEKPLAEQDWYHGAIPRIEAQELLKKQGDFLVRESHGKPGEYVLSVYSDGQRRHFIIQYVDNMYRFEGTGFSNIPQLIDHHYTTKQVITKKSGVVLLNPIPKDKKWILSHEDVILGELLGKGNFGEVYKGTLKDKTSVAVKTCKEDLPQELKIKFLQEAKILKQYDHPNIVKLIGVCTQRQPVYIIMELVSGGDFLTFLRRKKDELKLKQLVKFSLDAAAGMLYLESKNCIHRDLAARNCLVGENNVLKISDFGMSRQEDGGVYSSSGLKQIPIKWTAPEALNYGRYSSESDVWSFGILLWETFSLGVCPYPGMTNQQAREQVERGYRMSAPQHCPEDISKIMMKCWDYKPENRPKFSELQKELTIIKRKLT
CSNK1A1 (human), sequence (P48729 whole entry, looked up): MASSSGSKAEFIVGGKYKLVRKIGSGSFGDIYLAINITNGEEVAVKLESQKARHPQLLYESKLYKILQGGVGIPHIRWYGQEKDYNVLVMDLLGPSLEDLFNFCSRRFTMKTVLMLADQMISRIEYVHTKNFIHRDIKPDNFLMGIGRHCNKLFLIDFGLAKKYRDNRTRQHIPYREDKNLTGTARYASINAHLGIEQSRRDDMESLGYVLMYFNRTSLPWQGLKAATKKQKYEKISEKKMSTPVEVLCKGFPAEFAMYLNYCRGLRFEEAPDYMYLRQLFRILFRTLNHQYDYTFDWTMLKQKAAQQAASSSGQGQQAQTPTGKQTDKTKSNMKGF
FLT3 (human), sequence (P36888 whole entry, looked up): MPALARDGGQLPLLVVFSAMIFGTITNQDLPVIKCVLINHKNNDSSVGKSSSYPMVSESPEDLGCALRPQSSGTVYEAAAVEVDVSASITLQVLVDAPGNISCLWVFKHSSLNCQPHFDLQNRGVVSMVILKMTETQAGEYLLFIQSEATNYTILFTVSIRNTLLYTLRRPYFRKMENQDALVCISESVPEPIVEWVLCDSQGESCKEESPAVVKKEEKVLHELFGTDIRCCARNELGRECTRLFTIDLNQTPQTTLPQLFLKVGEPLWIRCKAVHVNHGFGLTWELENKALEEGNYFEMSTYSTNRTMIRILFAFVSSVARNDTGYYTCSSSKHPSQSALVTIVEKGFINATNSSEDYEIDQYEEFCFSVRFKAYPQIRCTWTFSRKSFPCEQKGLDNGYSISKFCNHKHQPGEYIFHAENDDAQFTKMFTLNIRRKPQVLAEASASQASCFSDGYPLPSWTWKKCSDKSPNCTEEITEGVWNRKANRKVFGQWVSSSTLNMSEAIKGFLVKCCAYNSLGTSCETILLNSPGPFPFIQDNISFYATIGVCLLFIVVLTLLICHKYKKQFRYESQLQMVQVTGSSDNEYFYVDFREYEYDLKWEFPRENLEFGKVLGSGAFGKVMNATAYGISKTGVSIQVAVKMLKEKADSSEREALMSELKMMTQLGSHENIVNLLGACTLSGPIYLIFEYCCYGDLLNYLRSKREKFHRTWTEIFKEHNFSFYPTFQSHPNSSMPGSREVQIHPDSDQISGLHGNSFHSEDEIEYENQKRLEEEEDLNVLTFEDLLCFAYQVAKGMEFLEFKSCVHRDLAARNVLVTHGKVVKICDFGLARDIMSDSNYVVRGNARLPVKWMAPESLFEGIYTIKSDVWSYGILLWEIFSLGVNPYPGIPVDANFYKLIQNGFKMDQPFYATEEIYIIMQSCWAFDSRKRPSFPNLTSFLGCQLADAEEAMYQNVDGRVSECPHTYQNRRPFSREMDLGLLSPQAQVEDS
CSNK2A2 (human), sequence (P19784 whole entry, looked up): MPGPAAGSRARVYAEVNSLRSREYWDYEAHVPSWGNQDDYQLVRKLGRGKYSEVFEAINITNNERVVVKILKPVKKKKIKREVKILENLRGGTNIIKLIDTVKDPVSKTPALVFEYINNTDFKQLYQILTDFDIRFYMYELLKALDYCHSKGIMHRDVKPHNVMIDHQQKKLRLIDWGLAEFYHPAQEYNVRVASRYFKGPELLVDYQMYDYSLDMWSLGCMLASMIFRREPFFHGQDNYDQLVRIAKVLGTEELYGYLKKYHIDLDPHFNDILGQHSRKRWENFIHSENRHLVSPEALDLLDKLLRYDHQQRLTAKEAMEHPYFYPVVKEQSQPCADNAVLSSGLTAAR
STK24 (human), sequence (Q9Y6E0 whole entry, looked up): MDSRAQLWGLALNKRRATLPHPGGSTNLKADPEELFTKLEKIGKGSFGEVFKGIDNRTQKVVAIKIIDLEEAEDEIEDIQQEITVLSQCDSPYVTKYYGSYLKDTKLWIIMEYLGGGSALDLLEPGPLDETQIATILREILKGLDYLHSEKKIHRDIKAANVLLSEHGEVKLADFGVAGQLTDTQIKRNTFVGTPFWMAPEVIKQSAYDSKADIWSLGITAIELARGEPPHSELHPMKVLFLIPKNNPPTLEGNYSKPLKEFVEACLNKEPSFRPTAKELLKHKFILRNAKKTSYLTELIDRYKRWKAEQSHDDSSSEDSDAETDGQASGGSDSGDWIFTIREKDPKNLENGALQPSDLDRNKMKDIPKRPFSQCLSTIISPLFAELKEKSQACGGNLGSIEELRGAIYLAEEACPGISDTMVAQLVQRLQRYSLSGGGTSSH
CAMK2A (human), sequence (Q9UQM7 whole entry, looked up): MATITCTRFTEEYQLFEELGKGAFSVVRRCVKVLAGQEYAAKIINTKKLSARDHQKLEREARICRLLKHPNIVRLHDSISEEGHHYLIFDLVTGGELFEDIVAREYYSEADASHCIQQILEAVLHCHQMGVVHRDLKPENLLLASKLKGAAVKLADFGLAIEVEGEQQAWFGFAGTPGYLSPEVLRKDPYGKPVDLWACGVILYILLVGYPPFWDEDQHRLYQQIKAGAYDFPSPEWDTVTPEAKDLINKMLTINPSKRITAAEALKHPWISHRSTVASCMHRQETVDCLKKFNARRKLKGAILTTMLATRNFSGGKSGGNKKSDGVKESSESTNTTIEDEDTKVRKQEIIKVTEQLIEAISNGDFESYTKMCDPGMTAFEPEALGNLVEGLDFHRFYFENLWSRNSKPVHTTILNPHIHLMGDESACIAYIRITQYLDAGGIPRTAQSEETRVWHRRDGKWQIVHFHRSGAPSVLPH
GSK3B (human), sequence (P49841 whole entry, looked up): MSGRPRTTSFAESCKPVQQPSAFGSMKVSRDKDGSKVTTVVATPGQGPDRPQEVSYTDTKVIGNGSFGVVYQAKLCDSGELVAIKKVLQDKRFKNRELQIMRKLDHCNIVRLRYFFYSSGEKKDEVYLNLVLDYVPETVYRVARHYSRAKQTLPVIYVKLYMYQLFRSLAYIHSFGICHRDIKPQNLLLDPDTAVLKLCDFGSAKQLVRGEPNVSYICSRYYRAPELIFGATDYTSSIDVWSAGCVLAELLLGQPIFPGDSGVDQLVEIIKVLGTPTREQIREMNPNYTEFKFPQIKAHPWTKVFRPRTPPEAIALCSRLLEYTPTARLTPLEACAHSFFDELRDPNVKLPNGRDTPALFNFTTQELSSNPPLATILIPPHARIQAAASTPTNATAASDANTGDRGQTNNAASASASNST
RPS6KA5 KD2 (human), sequence (O75582 whole entry, looked up): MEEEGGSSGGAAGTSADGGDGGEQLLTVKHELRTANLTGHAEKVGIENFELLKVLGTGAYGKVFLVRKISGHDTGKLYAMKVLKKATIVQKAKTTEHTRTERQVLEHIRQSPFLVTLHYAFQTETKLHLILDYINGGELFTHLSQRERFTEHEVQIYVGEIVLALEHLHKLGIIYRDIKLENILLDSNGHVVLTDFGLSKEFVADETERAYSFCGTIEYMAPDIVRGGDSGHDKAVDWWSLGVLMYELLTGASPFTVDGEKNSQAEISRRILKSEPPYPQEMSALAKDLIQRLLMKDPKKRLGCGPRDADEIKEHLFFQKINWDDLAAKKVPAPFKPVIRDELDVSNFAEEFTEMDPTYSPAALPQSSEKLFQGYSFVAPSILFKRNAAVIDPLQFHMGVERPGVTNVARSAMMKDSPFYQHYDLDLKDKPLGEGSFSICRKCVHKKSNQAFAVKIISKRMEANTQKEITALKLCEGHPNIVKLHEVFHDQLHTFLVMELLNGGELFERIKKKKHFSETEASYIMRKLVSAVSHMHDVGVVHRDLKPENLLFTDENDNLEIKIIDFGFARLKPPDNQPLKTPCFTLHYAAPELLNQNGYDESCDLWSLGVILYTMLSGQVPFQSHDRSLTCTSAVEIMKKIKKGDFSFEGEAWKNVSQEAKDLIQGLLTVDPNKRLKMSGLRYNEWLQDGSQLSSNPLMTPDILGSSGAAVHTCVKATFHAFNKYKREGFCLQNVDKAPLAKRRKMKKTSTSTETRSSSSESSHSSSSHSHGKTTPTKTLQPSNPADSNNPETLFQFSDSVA
MAPK12 (human), sequence (P53778 whole entry, looked up): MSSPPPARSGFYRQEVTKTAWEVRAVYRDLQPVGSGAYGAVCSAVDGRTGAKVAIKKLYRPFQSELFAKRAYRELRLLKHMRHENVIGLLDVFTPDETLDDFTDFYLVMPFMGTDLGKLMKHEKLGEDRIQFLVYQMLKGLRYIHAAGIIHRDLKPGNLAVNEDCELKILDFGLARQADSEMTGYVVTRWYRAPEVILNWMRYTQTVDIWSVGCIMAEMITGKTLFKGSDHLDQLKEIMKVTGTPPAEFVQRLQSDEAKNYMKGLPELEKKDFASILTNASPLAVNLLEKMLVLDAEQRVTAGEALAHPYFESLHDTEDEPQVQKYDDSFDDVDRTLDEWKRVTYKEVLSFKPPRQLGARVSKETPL

O=C(O)c1ccc2c3c1cccc3c(=O)n1c3ccccc3nc21
residual activity (AXL (human)): 94.3% | residual activity (CAMK2A (human)): 85.2% | residual activity (CDK1 CCNA2 (human)): 78.1% | residual activity (CDK4 CCND3 (human)): 102% | residual activity (CDK6 CCND3 (human)): 105% | residual activity (CDK9 CCNT1 (human)): 78.3% | residual activity (CHEK1 (human)): 101% | residual activity (CSNK1A1 (human)): 97.6% | residual activity (CSNK2A2 (human)): 13.3% | residual activity (EPHA8 (human)): 89.4% | residual activity (ERBB2 (human)): 99.7% | residual activity (FER (human)): 96.5% | residual activity (FLT3 (human)): 68.9% | residual activity (FYN (human)): 94% | residual activity (GRK4 (human)): 95.5% | residual activity (GRK5 (human)): 97.1% | residual activity (GRK6 (human)): 91.4% | residual activity (GSG2 (human)): 90.9% | residual activity (GSK3B (human)): 100% | residual activity (MAPK11 (human)): 105% | residual activity (MAPK12 (human)): 103% | residual activity (MAPK13 (human)): 104% | residual activity (MAPK14 (human)): 99% | residual activity (MAPK3 (human)): 102% | residual activity (MAPK9 (human)): 97.5% | residual activity (MARK4 (human)): 88.4% | residual activity (MET (human)): 104% | residual activity (PBK (human)): 97.5% | residual activity (PIM3 (human)): 4.96% | residual activity (PRKCG (human)): 99.1% | residual activity (PRKCI (human)): 94.6% | residual activity (PTK2B (human)): 69.2% | residual activity (RAF1 (human)): 97.5% | residual activity (RET (human)): 96.8% | residual activity (RPS6KA4 KD2 (human)): 110% | residual activity (RPS6KA5 KD2 (human)): 104% | residual activity (SGK2 (human)): 103% | residual activity (SGK3 (human)): 103% | residual activity (STK24 (human)): 87.6% | residual activity (STK4 (human)): 93.3% | residual activity [1]: 22.8% | residual activity (VRK1 (human)): 103%
